According to patent US10085957B2, “Benzoic acid compounds for reducing uric acid” (Wellstat Therapeutics Corporation, priority 2010, dated 2018):
Where two headings read alike, the source gives them in different places.

Biological target: T1, human URAT1 (Homo sapiens, UniProt Q96S37)
T1 construct: The full-length hURAT1 cDNA was obtained from the vector pCMV6-XL5 and subcloned into the expression vector pCMV6-Neo
T1 sequence (Q96S37 1-553): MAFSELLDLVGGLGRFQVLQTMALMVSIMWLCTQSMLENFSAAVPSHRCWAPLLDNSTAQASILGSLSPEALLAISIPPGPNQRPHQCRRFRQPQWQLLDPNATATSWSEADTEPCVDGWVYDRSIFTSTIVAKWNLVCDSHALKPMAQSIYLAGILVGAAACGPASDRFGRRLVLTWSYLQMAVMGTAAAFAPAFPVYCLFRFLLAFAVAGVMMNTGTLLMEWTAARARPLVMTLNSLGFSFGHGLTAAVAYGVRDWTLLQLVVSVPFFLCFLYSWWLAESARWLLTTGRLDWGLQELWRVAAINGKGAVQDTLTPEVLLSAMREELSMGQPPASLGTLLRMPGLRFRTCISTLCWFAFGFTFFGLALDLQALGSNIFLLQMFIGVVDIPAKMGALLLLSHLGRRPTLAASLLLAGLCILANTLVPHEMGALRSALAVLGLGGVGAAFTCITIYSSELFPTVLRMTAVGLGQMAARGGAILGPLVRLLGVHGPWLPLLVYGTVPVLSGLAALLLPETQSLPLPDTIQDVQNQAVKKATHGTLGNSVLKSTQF
Test: URAT1 inhibition assay: [8-14C] urate uptake in hURAT1-HEK cells
Type: cell-based
Protocol: An in vitro URAT1 assay is useful for identifying compounds with potential activity in lowering serum uric acid. A suitable assay involves transfection of cells (e.g. human embryonic kidney cells; “HEK”) with a vector encoding human URAT1, followed by determination of the ability of transfected cells to take up radiolabeled uric acid. The activity of compounds as URAT1 inhibitors is evaluated by their ability to block uric acid uptake by transfected cells.
Plasmid vector pCMV6-XL5 containing hURAT1 cDNA (Cat. No. SC125624) and the expression vector pCMV6-Neo (Cat. No.pCMVNEO) were obtained from OriGene Technologies, Inc. The full-length hURAT1 cDNA was obtained from the vector pCMV6-XL5 and subcloned into the expression vector pCMV6-Neo to create the hURAT1 expression plasmid pCMV6-hURAT1. The sequences were verified by automatic DNA sequencing.
Human embryonic kidney 293 (HEK) cells (ATTCC, Cat No. CRL-1573) were cultured in EMEM supplemented with 10% FBS and 2 mM L-glutamine and incubated at 37° C. and 5% CO2. For transfection experiments, cells were plated on 60 mm dishes in 1 ml media per dish. After an 18-24 hour incubation, cells were transfected with plasmid pCMV6-hURAT1 or the expression vector pCMV6-Neo, using the Lipofectin trasfection agent following the manufacturer's instructions (Invitrogen, Cat.No. 18292). After transfection cells were grown in EMEM media for 72 hours and then by adding lmg/ml Geneticin (GIBCO, Cat. No 10131) stable transfectants were selected. Stable transfectants expressing hURAT1 (herein after referred as hURAT1-HEK cells) or cells having only the expression vector pCMV6-Neo (herein after referred as mock-HEK cells) were verified using reverse transcription polymerase chain reaction (RT-PCR) methods.
hURAT1-HEK cells and mock-HEK cells were plated in poly-D-Lysine Cell culture 24 well plates (Becton Dickinson, Cat. No. 354414) at a concentration of 3×10^5 in EMEM medium and incubated overnight. Reaction solutions containing the [8-^14C] urate (55 mCi/mmol) at a final concentration of 50 μM were prepared with or without test compounds in Hanks' balanced salt solution (HBSS) containing 125 mM sodium gluconate, 4.8 mM potassium gluconate, 1.3 mM calcium, 5.6 mM glucose, 1.2 mM magnesium sulfate, 1.2 mM KH2PO4 and 25 mM HEPES (pH7.4). Before the uptake assay started, the culture medium was removed and the cells were incubated for 5 min in 0.6 ml of HBSS. After that HBSS was removed, the prepared reaction solutions were added into each well and incubated for 5 min at room temperature. Then the reaction solution was removed, cells were washed twice with 0.6 ml of cold HBSS and lysed with 0.2 ml of 0.1 M NaOH for 20 min. The cell lysates were transferred into the scintillation vials containing 1 ml of scintillation fluid (Opti Phase SuperMIX, PerkinElmer, Cat No. 1200-439) and the radioactivity was counted in the Microbeta counter (1450, Wallac Jet, PerkinElmer). Test compounds were dissolved in DMSO and the same concentration of DMSO was added into the wells of mock-HEK cells and the hURAT1-HEK cells that didn't contain test compounds. For each test compound, the uptake assay was performed 2 times and carried out in triplicate. Urate uptake of the cells for each test condition was presented as the average percent inhibition in comparison to the DMSO control. The radioactivity values obtained for the wells that contained DMSO were taken as 100% uptake of the cells. The observed concentration-percent inhibition data were fitted to a sigmoidal concentration-effect model, where: % Inhibition=(100*Conc^Slope)/(IC50^Slope+Conc^Slope)
IC50 and slope estimates with their 95% confidence limits were determined by a non-linear, least-squares regression analysis using the Data Analysis Toolbox™ (MDL Information Systems, San Leandro, Calif., USA). […]

[1] = 10 μM test compound, 14C urate uptake in hURAT1-HEK cells, vs DMSO control, read-out: % of inhibition (at 10 μM)

Compound	inhibition at 10 µM [1] [%]	also measured
Cc1ccc(C(=O)O)cc1OCc1c(C)cccc1C [FA, 3-(2,6-dimethylbenzyloxy)-4-methylbenzoic acid]	83.2	
Cc1cccc(C)c1COc1cc(C(=O)O)ccc1[N+](=O)[O-] [FB, 3-(2,6-dimethylbenzyloxy)-4-nitrobenzoic acid]	81	
Cc1cccc(C)c1COc1cc(C(=O)O)ccc1N [FE, 4-amino-3-(2,6-dimethylbenzyloxy)benzoic acid]	10	
Cc1cccc(C)c1COc1cc(C(=O)O)ccc1F [FD, 3-(2,6-dimethylbenzyloxy)-4-fluorobenzoic acid]	68.1	
COc1ccc(C(=O)O)cc1OCc1c(C)cccc1C [Compound FC, 3-(2,6-dimethylbenzyloxy)-4-methoxybenzoic acid]	89.2	inhibition at 0.05 µM (concentration 0.05 μM, urate uptake in hURAT1-HEK cells): 7.08%; inhibition at 0.1 µM (concentration 0.1 μM, urate uptake in hURAT1-HEK cells): -1.08%; inhibition at 0.5 µM (concentration 0.5 μM, urate uptake in hURAT1-HEK cells): 34.6%; inhibition at 1 µM (concentration 1 μM, urate uptake in hURAT1-HEK cells): 49.8%; inhibition at 10 µM (concentration 10 μM, urate uptake in hURAT1-HEK cells (Table 2), read-out: % of inhibition Avg.): 93.3%; inhibition at 100 µM (concentration 100 μM, urate uptake in hURAT1-HEK cells): 97.8%
Cc1ccc(CC(=O)O)cc1OCc1c(C)cccc1C [EH, 2-(3-(2,6-Dimethylbenzyloxy)-4-methylphenyl)acetic acid, reference compound]	95.6	
